Measured values from patent publication US12012403B2, “Aryl sulfonyl compounds as CCR6 inhibitors” (CHEMOCENTRYX, INC., priority 2021, dated 2024).

Molecular target: T1, human CCR6 (Homo sapiens, UniProt P51684)
T1 construct: expressed in transfected cells; host or cells: Ba/F3 cells (murine pro-B line), hCCR6-transfected, CMV promoter, sodium butyrate induction
T1 sequence (P51684 1-374): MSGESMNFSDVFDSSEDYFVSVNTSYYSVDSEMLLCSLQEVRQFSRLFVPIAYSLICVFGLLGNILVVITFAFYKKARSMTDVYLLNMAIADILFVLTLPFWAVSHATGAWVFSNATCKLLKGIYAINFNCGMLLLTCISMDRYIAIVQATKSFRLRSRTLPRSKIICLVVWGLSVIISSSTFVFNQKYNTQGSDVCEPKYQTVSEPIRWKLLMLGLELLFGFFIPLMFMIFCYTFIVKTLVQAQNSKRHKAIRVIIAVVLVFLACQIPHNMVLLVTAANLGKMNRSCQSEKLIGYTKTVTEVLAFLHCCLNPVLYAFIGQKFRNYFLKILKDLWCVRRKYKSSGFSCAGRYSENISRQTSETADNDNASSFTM
Assay: Migration (chemotaxis) assay, hCCR6-transfected Ba/F3 cells toward CCL20
Format: cell-based
Settings: hCCR6-transfected Ba/F3 cells in human serum; recombinant human CCL20 10 nM; 37° C. 45 minutes; read-out: Potency (IC50 value in the migration assay)
How it was run: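 Ba/F3 cells stably transfected with human CCR6 (CMV promoter), pre-induced 24 hr with sodium butyrate, suspended at 4 million/ml in human serum with test compound serially diluted from 10 μM final. Migration through 5-μm polycarbonate membrane toward 10 nM CCL20 (EC50) for 45 min at 37 °C; migrated cells quantified by CyQUANT fluorescence.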

| SMILES | IC50 [nM] |
| --- | --- |
| NC(=O)c1cc(-c2ccc(S(=O)(=O)N3CCC(Nc4ccc(C(F)(F)F)cn4)CC3)cc2)cc2c1NC(=O)C2 [Example 1.005] | < 5 |
| Nc1n[nH]c2ncc(-c3ccc(S(=O)(=O)N4CCC(Nc5ccc(C(F)(F)F)cn5)CC4)cc3)nc12 [Example 1.017] | 5 to 100 |
| O=S(=O)(c1ccc(N2CCC(CO)CC2)cc1)N1CCC(Nc2ccc(C(F)(F)F)cn2)CC1 [Example 1.188] | 5 to 100 |
| NC(=O)N1CCCC(c2ccc(S(=O)(=O)N3CCC(Nc4ccc(C(F)(F)F)cn4)CC3)cc2)C1 (stereo not drawn) [Example 1.215] | 5 to 100 |
| O=S(=O)(c1ccc(-c2ccc3c(c2)C2(CCOCC2)CN3)cc1)N1CCC(Nc2ccc(C(F)(F)F)cn2)CC1 [Example 1.034] | 5 to 100 |
| O=C(CO)N1CCN(c2ccc(S(=O)(=O)N3CCC(Nc4ccc(C(F)(F)F)cn4)CC3)cc2)CC1 [Example 1.194] | 5 to 100 |
| NC(=O)N[C@H]1CCCN(c2ccc(S(=O)(=O)N3CCC(Nc4ccc(C(F)(F)F)cn4)CC3)cc2)C1 [Example 1.191] | 100 to 10000 |
| CC(C)(C)OC(=O)NC1CCN(c2ccc(S(=O)(=O)N3CCC(Nc4ccc(C(F)(F)F)cn4)CC3)cc2)CC1 [Example 1.217] | 5 to 100 |
| O=C1c2ccc(-c3ccc(S(=O)(=O)N4CCC(Nc5ccc(C(F)(F)F)cn5)CC4)cc3)cc2CN1CCO [Example 1.021] | 5 to 100 |
| Cn1nc(C#N)c2cc(-c3ccc(S(=O)(=O)N4CCC(Nc5ccc(C(F)(F)F)cn5)CC4)cc3)ccc21 [Example 1.091] | < 5 |
| O=S(=O)(c1ccc(N2CCN3C[C@H](O)C[C@H]3C2)cc1)N1CCC(Nc2ccc(C(F)(F)F)cn2)CC1 (racemic) [Example 1.178] | 100 to 10000 |
| O=C1Cc2cc(-c3ccc(S(=O)(=O)N4CCC(Nc5ccc(C(F)(F)F)cn5)CC4)cc3)ccc2CN1 [Example 1.012] | < 5 |
| NC(=O)C1CC12CCN(c1ccc(S(=O)(=O)N3CCC(Nc4ccc(C(F)(F)F)cn4)CC3)cc1)CC2 (stereo not drawn) [Example 1.137] | 100 to 10000 |
| CN1CCN(c2ccc(S(=O)(=O)N3CCC(Nc4ccc(C(F)(F)F)cn4)CC3)cc2)CC1 [Example 1.232] | 100 to 10000 |
| N#Cc1ccc2nc(-c3ccc(S(=O)(=O)N4CCC(Nc5ccc(C(F)(F)F)cn5)CC4)cc3)sc2c1 [Example 1.060] | 5 to 100 |
| CC(=O)NCC1CCN(c2ccc(S(=O)(=O)N3CCC(Nc4ccc(C(F)(F)F)cn4)CC3)cc2)CC1 [Example 1.140] | 5 to 100 |
| O=S(=O)(c1ccc(N2CCC(O)CC2)nc1)N1CCC(Nc2ccc(C(F)(F)F)cn2)CC1 [Example 1.209] | 100 to 10000 |
| O=C1CC2(CCN(c3ccc(S(=O)(=O)N4CCC(Nc5ccc(C(F)(F)F)cn5)CC4)cc3)CC2)CC(=O)N1 [Example 1.152] | < 5 |
